Experimental data as given in patent publication US10376504B2, “Substituted quinolinones as PDE9 inhibitors” (Merck Sharp & Dohme Corp., priority 2015, dated 2019).

Target: human PDE9 (PDE9A2) (Homo sapiens (Human), UniProt O76083)
Test: PDE9 IMAP fluorescence polarization (FP) inhibition assay
Assay type: biochemical
Details: FAM-cGMP substrate 50 nM, room temperature
Experimental: The activity of the compounds in accordance with the present invention as PDE9 inhibitors may be readily determined without undue experimentation using a fluorescence polarization (FP) methodology that is well known in the art (Huang, W., et al., J. Biomol Screen, 2002, 7: 215).
In a typical experiment the PDE9 inhibitory activity of the compounds of the present invention was determined in accordance with the following experimental method. Rhesus PDE9A2 was amplified from rhesus whole brain cDNA (Biochain Institute) essentially as described in Hutson, et al. Neuropharmacology (2011) 61(4):665-676. HEK 293 or CHO cells over-expressing rhesus or rat PDE9A2 (created by DiscoverX from mRNA Genbank accession # NM_138543) respectively were lysed in 20 mM HEPES, 1 mM EDTA buffer with protease inhibitors (Roche, Indianapolis, Ind.). After brief homogenization, cells were pelleted via centrifugation at 75,000×g for 20 min at 4° C. The pellets were re-suspended, centrifuged and re-pelleted again in the same manner. The membrane fraction was collected in 20 mM HEPES, 1 mM MgCl2 with protease inhibitors. Human PDE9 (PDE9A2, GenBank Accession No. NM_001001567), full length with N-terminal GST tag, was purchased from BPS Bioscience. The fluorescence polarization assay for cyclic nucleotide phosphodiesterases was performed using an IMAP® FP kit supplied by Molecular Devices, Sunnyvale, Calif. (product # R8139). IMAP® technology has been applied previously to phosphodiesterase assays (Huang, W., et al., J. Biomol Screen, 2002, 7: 215). Assays were performed at room temperature in 384-well microtiter plates with an incubation volume of 20.2 μL. Solutions of test compounds were prepared in DMSO and serially diluted with DMSO to yield 8 μL of each of 10 solutions differing by 3-fold in concentration, at 32 serial dilutions per plate. 100% inhibition is determined using a known PDE9 inhibitor, such as 1-(2-chlorophenyl)-6-[(2R)-3,3,3-trifluoro-2-methylpropyl]-1,5-dihydro-4H-pyrazolo[3,4-d]pyrimidine-4-one (BAY 73-6691) (Wunder et al, Mol. Pharmacol., 2005, 68(6): 1775-81), (6-[(3S,4S)-4-methyl-1-(pyrimidin-2-ylmethyl)pyrrolidin-3-yl]-1-(tetrahydro-2H-pyran-4-yl)-1,5-dihydro-4H-pyrazolo[3,4-d]pyrimidin-4-one (PF-04447943) (Wager et al., ACS Chemical Neuroscience, 2010, 1:435-449). 0% of inhibition is determined by using DMSO (1% final concentrations). A Labcyte Echo 555 (Labcyte, Sunnyvale, Calif.) is used to dispense 200 nL from each well of the titration plate to the 384 well assay plate. Rhesus membrane preps were diluted to 4 ng/ml, rat membrane preps diluted to 13 ng/ml, and human PDE9A2 diluted to 1 ng/ml. FAM-labeled cGMP substrate (Molecular Devices, Sunnyvale, Calif.) was at a concentration of 100 nM (Km of PDE9 for cGMP is 70-170 nM) in the assay buffer (10 mM Tris HCl, pH 7.2, 10 mM MgCl2, 0.05% NaN3 0.01% Tween-20, and 1 mM DTT). PDE9 enzyme mix and compounds were mixed and incubated at room temperature for 30 min. Following which, FAMcGMP substrate was added, shaken and incubated for an additional 60 min at room temperature. The final concentrations of rhesus and rat membrane preparations were 2 ng/ml and 6.5 ng/ml, respectively, while the human PDE9 was used at a final concentration of 0.5 ng/ml. The final concentration of FAM-cGMP was 50 nM. After the incubation period, the enzymatic reaction was stopped by addition of binding solution (IMAP-FP, Molecular Devices, comprised of 80% Solution A, 20% Solution B and a 1:600 dilution of binding reagent) to each well. The plates were shaken then incubated at room temperature for 1 h prior to determining the fluorescence polarization (mP) using a Perkin Elmer EnVision™ plate reader (Waltham, Mass.).
Fluorescence polarization (mP) was calculated from the parallel (S) and perpendicular (P) fluorescence of each sample well and the analogous values for the median control well, containing only substrate (So and Po), using the following equation: Polarization(mP)=1000*(S/So−P/Po)/(S/So+P/Po). […]

human PDE9 (PDE9A2), sequence (O76083 other isoform, or with tags, fused parts or gaps): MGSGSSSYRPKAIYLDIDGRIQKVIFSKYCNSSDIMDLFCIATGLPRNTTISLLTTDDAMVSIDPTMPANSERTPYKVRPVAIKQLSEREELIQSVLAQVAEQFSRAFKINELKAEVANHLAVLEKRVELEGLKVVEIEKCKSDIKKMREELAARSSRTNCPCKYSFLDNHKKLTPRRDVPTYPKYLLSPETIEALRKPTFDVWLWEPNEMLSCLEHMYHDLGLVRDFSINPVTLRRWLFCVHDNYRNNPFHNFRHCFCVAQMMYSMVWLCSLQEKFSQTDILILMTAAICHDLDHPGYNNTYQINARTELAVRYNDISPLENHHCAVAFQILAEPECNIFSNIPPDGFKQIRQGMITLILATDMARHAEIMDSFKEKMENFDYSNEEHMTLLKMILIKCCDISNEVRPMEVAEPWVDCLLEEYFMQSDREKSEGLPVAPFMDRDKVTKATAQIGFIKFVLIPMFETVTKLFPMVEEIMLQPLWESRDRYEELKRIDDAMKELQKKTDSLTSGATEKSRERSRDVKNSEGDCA

Row | Ki | SMILES
1 | 0.018 µM | N#Cc1c(N2CCCCCC2)c2ccccc2[nH]c1=O [Example 1-8, 4-(azepan-1-yl)-2-oxo-1,2-dihydroquinoline-3-carbonitrile]
2 | 0.0075 µM | N#Cc1c(N2CC[C@@H](n3cccn3)C2)c2ccccc2[nH]c1=O [Example 1-7, (R)-4-(3-[1H-pyrazol-1-yl]pyrrolidin-1-yl)-2-oxo-1,2-dihydroquinoline-3-carbonitrile]
3 | 0.0889 µM | CCN(CC)c1c(C#N)c(=O)[nH]c2ccccc12 [Example 1-10, 4-(diethylamino)-2-oxo-1,2-dihydroquinoline-3-carbonitrile]
4 | 5.55 µM | N#Cc1c(N2CCC2)c2ccccc2[nH]c1=O [Example 1-9, 4-(azetidin-1-yl)-2-oxo-1,2-dihydroquinoline-3-carbonitrile]
5 | 0.0263 µM | CC1(C)CCN(c2c(C#N)c(=O)[nH]c3ccccc23)CC1 [Example 1-11, 4-(4,4-dimethylpiperidin-1-yl)-2-oxo-1,2-dihydroquinoline-3-carbonitrile]
6 | 0.0711 µM | N#Cc1c(NCCC2COC2)c2ccccc2[nH]c1=O [Example 1-12, 4-((2-(oxetan-3-yl)ethyl)amino)-2-oxo-1,2-dihydroquinoline-3-carbonitrile]
